Where a SMILES comes first, the peptide text is derived from it.
Experiments:
[1] = Solubility in water or diluted hydrochloric acid
[2] = times of that of sugar; cited from earlier work

SMILES	solubility ([1]; in diluted hydrochloric acid (10^-2 M) at 25° C.)	solubility ([1]; in water at 25° C.)	sweetness relative to sugar [2]
COC(=O)[C@H](Cc1ccccc1)NC(=O)[C@H](CC(=O)O)NC(=O)OCc1ccccc1	0.017 g/100 g diluted hydrochloric acid (10^-2 M)	0.028 g/100 g water	–
COC(=O)[C@H](Cc1ccccc1)NC(=O)[C@@H](N)CC(=O)O [α-L-Aspartyl-L-phenylalanine methyl ester] (H-Asp-Phe-OMe)	–	–	about 200 times
